Among the test systems are SF-295 CNS; SK-MEL-2 melanoma; DU-145 prostate; OVCAR-4 ovarian; SW-620 colon; HOP-92 NSCLC; HCC-2998 colon; SF-268 CNS; OVCAR-3 ovarian; SK-OV-3 ovarian.
Holding throughout (test): NCI-60 cell line screen, 48 h

Values joined by “and” are separate entries in the source; they are usually repeats but may differ in a detail not shown here. Equal values may be shown once.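 Five compound concentrations were applied to cells in 96-well plates for 48 hours; endpoints were derived by simple linear interpolation of the resulting dose-response curve. GI50 marks 50% less growth. TGI denotes the concentration required for complete inhibition of growth.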

These results are taken from PubChem BioAssay (NCI).

For `Nc1nc2ccccc2c2c1S(=O)(=O)c1ccc(Cl)cc1C2=O`, the GI50 in the assay with SF-295 CNS is 2.22 µM; in the assay with SK-MEL-2 melanoma, 2.27 µM; in the assay with DU-145 prostate it was 2.13 µM; with OVCAR-4 ovarian it was 1.46 µM; in the assay on SW-620 colon it was 1.02 µM; with HOP-92 NSCLC, 0.542 µM. In addition, the GI50 was 2.03 µM in the assay with HCC-2998 colon, 1.83 µM in the assay with SF-268 CNS, 1.14 µM in the assay with OVCAR-3 ovarian and 6.9 µM in the assay with SK-OV-3 ovarian. Further, the TGI was above 50 µM in the assay with SF-295 CNS; above 50 µM in the assay with SK-MEL-2 melanoma; above 50 µM in the assay with DU-145 prostate; 10.8 µM with OVCAR-4 ovarian; 2.25 µM in the assay on SW-620 colon; 3.63 µM in the assay on HOP-92 NSCLC. For the same molecule, the TGI in the assay on HCC-2998 colon is 29.8 µM; in the assay on SF-268 CNS, above 50 µM; in the assay with OVCAR-3 ovarian it was 3.33 µM; with SK-OV-3 ovarian, 44.8 µM.
With `CN(C)CCCn1c2c(c3cc4c(cc3c1=O)OCO4)C(=O)c1ccccc1-2`, the GI50 with SF-295 CNS was 3.12 µM; in the assay with SK-MEL-2 melanoma, 18.4 µM; in the assay with DU-145 prostate, 3.08 µM; in the assay with OVCAR-4 ovarian it was 0.715 µM; in the assay on SW-620 colon, 0.85 µM; in the assay on HOP-92 NSCLC, 0.713 µM. For the same molecule, the GI50 is 0.121 µM in the assay with HCC-2998 colon, 13.9 µM in the assay on SF-268 CNS, 2.36 µM in the assay on OVCAR-3 ovarian and 4.99 µM in the assay with SK-OV-3 ovarian. Moreover, the TGI was 12.5 µM in the assay with SF-295 CNS; above 59.5 µM with SK-MEL-2 melanoma; above 27.5 µM in the assay on DU-145 prostate; above 23.3 µM with OVCAR-4 ovarian; above 39.9 µM in the assay with SW-620 colon; 6.37 µM with HOP-92 NSCLC. In addition, the TGI with SF-268 CNS is above 44.4 µM; in the assay with OVCAR-3 ovarian, 6.46 µM; in the assay with SK-OV-3 ovarian, above 39.3 µM.
Consider `Nc1nc(-c2ccc(Cl)cc2)nc2c1sc(=S)n2-c1ccccc1`, for which the GI50 in the assay with SF-295 CNS is 2.72 µM; in the assay with SK-MEL-2 melanoma, 10.7 µM; with DU-145 prostate it was 4.36 µM; with OVCAR-4 ovarian, 1.95 µM; in the assay with SW-620 colon it was 6.45 µM; with HOP-92 NSCLC, 2.37 µM. Also, the GI50 is 7.52 µM in the assay with HCC-2998 colon, 3.75 µM in the assay on SF-268 CNS, 2.75 µM with OVCAR-3 ovarian and 3.83 µM in the assay with SK-OV-3 ovarian. Also, the TGI was found to be 7.62 µM in the assay with SF-295 CNS; 41.2 µM with SK-MEL-2 melanoma; 18.9 µM in the assay on DU-145 prostate; 4.57 µM in the assay on OVCAR-4 ovarian; 82.9 µM in the assay with SW-620 colon; 6.25 µM in the assay with HOP-92 NSCLC. The TGI amounted to 50.2 µM in the assay with HCC-2998 colon, 20.2 µM in the assay on SF-268 CNS, 7.64 µM in the assay on OVCAR-3 ovarian and 14.5 µM in the assay with SK-OV-3 ovarian.
Consider `C/C(=N\NC(=S)N1CCN(c2ccccn2)CC1)c1ncccn1`, for which the GI50 in the assay on SF-295 CNS was 0.0934 µM; in the assay on SK-MEL-2 melanoma it was 2.48 µM; in the assay with DU-145 prostate, 3.17 µM; in the assay with OVCAR-4 ovarian, 2.44 µM; with SW-620 colon it was 0.038 µM; with HOP-92 NSCLC, 0.208 µM. In addition, the GI50 in the assay with HCC-2998 colon was 0.177 µM; in the assay on SF-268 CNS, 0.791 µM; in the assay with OVCAR-3 ovarian, 0.213 µM; in the assay with SK-OV-3 ovarian it was 0.0884 µM. The TGI was 5.83 µM and 6.76 µM with SF-295 CNS; 5.88 µM and 18.5 µM in the assay with SK-MEL-2 melanoma; 18.8 µM in the assay on DU-145 prostate; 4.26 µM and 21.2 µM in the assay with OVCAR-4 ovarian; 5.18 µM and 17.8 µM in the assay on SW-620 colon; 5.91 µM and 3.08 µM in the assay on HOP-92 NSCLC. Also, the TGI in the assay with HCC-2998 colon is 5.21 µM and 13.5 µM; with SF-268 CNS, 1.47 µM and 14.6 µM; in the assay with OVCAR-3 ovarian, 7.5 µM and 15.3 µM; in the assay on SK-OV-3 ovarian it was 4.47 µM and 13 µM.
For `C=C1C(=O)O[C@H]2[C@H]1CC/C(COC(=O)NCc1c[nH]c3ccc(F)cc13)=C\CC[C@@]1(C)O[C@@H]21`, the GI50 in the assay with SF-295 CNS is 4.29 µM; with SK-MEL-2 melanoma it was 1.5 µM; with DU-145 prostate, 1.08 µM; with OVCAR-4 ovarian it was 1.52 µM; with SW-620 colon, 0.619 µM; with HOP-92 NSCLC, 1.48 µM. Moreover, the GI50 is 1.77 µM in the assay with HCC-2998 colon, 1.81 µM in the assay with SF-268 CNS, 0.984 µM with OVCAR-3 ovarian and 11.1 µM in the assay on SK-OV-3 ovarian. The TGI with SF-295 CNS was determined as 16.6 µM; in the assay on SK-MEL-2 melanoma, 3.39 µM; with DU-145 prostate it was 2.48 µM; in the assay with OVCAR-4 ovarian it was 3.59 µM; with SW-620 colon, 2.65 µM; in the assay on HOP-92 NSCLC, 3.04 µM. For the same molecule, the TGI with HCC-2998 colon was determined as 3.41 µM; in the assay on SF-268 CNS it was 3.9 µM; in the assay with OVCAR-3 ovarian, 3.07 µM; in the assay with SK-OV-3 ovarian, 23.1 µM.
Take `COc1ccc(-c2[nH]c3ccccc3c2/C=C(\C#N)S(=O)(=O)c2ccccc2)cc1`: the GI50 is 0.487 µM with SF-295 CNS; 4.79 µM in the assay on SK-MEL-2 melanoma; 0.447 µM with DU-145 prostate; 0.559 µM with OVCAR-4 ovarian; 0.503 µM with SW-620 colon; 1.43 µM in the assay with HOP-92 NSCLC. The GI50 is 1.11 µM in the assay on HCC-2998 colon, 1.13 µM in the assay with SF-268 CNS, 0.241 µM in the assay on OVCAR-3 ovarian and 0.516 µM in the assay on SK-OV-3 ovarian. Besides, the TGI is above 21.8 µM in the assay with SK-MEL-2 melanoma; above 31.8 µM with OVCAR-4 ovarian; above 100 µM in the assay on SW-620 colon; above 20.6 µM with HOP-92 NSCLC; 5.99 µM in the assay with HCC-2998 colon; above 45.9 µM in the assay with SF-268 CNS. Moreover, the TGI is 0.673 µM in the assay on OVCAR-3 ovarian and above 25.3 µM in the assay on SK-OV-3 ovarian.
`N#Cc1c(NC(=O)c2ccccc2F)sc2c1CCCC2`: the GI50 with SF-295 CNS is above 25 µM; with SK-MEL-2 melanoma, above 25 µM; in the assay on DU-145 prostate it was above 25 µM; in the assay on OVCAR-4 ovarian, above 25 µM; in the assay with SW-620 colon, 8.77 µM; with HOP-92 NSCLC, above 25 µM. Moreover, the GI50 was 13.4 µM in the assay on HCC-2998 colon, above 25 µM in the assay with SF-268 CNS, above 25 µM in the assay with OVCAR-3 ovarian and above 25 µM in the assay with SK-OV-3 ovarian. The TGI with SF-295 CNS, with SK-MEL-2 melanoma, with DU-145 prostate, in the assay with OVCAR-4 ovarian, with SW-620 colon and with HOP-92 NSCLC was above 25 µM each time. For the same molecule, the TGI with HCC-2998 colon, with SF-268 CNS, in the assay with OVCAR-3 ovarian and with SK-OV-3 ovarian was above 25 µM in each case.
